In brackets after ≈: the same amount, converted by molar mass.
Assays:
Assay type in all cases: functional
[1] = system: Staphylococcus aureus; test: Antibacterial activity against Staphylococcus aureus ATCC 25923 by microbroth dilution method
[2] = system: Staphylococcus aureus; test: Antibacterial activity against Staphylococcus aureus ATCC 29213 by microbroth dilution method
[3] = system: Staphylococcus aureus; test: Antibacterial activity against drug-resistant Staphylococcus aureus by microbroth dilution method
[4] = system: Staphylococcus aureus; test: Antibacterial activity against methicillin-resistant Staphylococcus aureus N315 by microbroth dilution method
[5] = system: Enterococcus faecalis; test: Antibacterial activity against drug-resistant Enterococcus faecalis by microbroth dilution method
[6] = system: Candida albicans; test: Antifungal activity against Candida albicans ATCC 90023
[7] = system: Candida albicans; test: Antifungal activity against drug-resistant Candida albicans
[8] = system: Candida parapsilosis; test: Antifungal activity against Candida parapsilosis ATCC 22019; settings: Lodderomyces parapsilosis
[9] = system: Candida tropicalis; test: Antifungal activity against drug-resistant Candida tropicalis
[10] = system: Aspergillus fumigatus; test: Antifungal activity against Aspergillus fumigatus
[11] = system: Escherichia coli; test: Antibacterial activity against Escherichia coli ATCC 25922 by microbroth dilution method
[12] = system: Pseudomonas aeruginosa; test: Antibacterial activity against Pseudomonas aeruginosa ATCC 27853 by microbroth dilution method
[13] = system: Escherichia coli; test: Antibacterial activity against drug-resistant Escherichia coli by microbroth dilution method
[14] = system: Pseudomonas aeruginosa; test: Antibacterial activity against Pseudomonas aeruginosa by microbroth dilution method
[15] = system: Klebsiella pneumoniae; test: Antibacterial activity against Klebsiella pneumoniae by microbroth dilution method
[16] = system: Acinetobacter baumannii; test: Antibacterial activity against Acinetobacter baumannii by microbroth dilution method

SMILES	MIC [1]	MIC [2]	MIC [3]	MIC [4]	MIC [5]	MIC [6]	MIC [7]	MIC [8]	MIC [9]	MIC [10]	MIC [11]	MIC [12]	MIC [13]	MIC [14]	MIC [15]	MIC [16]
C/C(Cn1cc(-c2csc(N)n2)c(=O)c2cc(F)cc(F)c21)=N\NC(N)=S	157 µM (≈ 64.1 µg/mL)	78 µM (≈ 31.9 µg/mL)	78 µM (≈ 31.9 µg/mL)	314 µM (≈ 128 µg/mL)	1260 µM (≈ 513 µg/mL)	627 µM (≈ 256 µg/mL)	627 µM (≈ 256 µg/mL)	314 µM (≈ 128 µg/mL)	627 µM (≈ 256 µg/mL)	1260 µM (≈ 513 µg/mL)	1260 µM (≈ 513 µg/mL)	627 µM (≈ 256 µg/mL)	1260 µM (≈ 513 µg/mL)	627 µM (≈ 256 µg/mL)	627 µM (≈ 256 µg/mL)	627 µM (≈ 256 µg/mL)
CC(=O)Cn1cc(-c2csc(N)n2)c(=O)c2cc(F)c(Cl)cc21	182 µM (≈ 64 µg/mL)	365 µM (≈ 128 µg/mL)	182 µM (≈ 64 µg/mL)	365 µM (≈ 128 µg/mL)	365 µM (≈ 128 µg/mL)	91 µM (≈ 32 µg/mL)	91 µM (≈ 32 µg/mL)	182 µM (≈ 64 µg/mL)	365 µM (≈ 128 µg/mL)	365 µM (≈ 128 µg/mL)	182 µM (≈ 64 µg/mL)	91 µM (≈ 32 µg/mL)	729 µM (≈ 256 µg/mL)	91 µM (≈ 32 µg/mL)	729 µM (≈ 256 µg/mL)	365 µM (≈ 128 µg/mL)
Cc1nc(-c2c[nH]c3c(F)cccc3c2=O)cs1	985 µM (≈ 256 µg/mL)	1970 µM (≈ 513 µg/mL)	1970 µM (≈ 513 µg/mL)	1970 µM (≈ 513 µg/mL)	985 µM (≈ 256 µg/mL)	985 µM (≈ 256 µg/mL)	985 µM (≈ 256 µg/mL)	492 µM (≈ 128 µg/mL)	492 µM (≈ 128 µg/mL)	492 µM (≈ 128 µg/mL)	985 µM (≈ 256 µg/mL)	492 µM (≈ 128 µg/mL)	1970 µM (≈ 513 µg/mL)	985 µM (≈ 256 µg/mL)	985 µM (≈ 256 µg/mL)	492 µM (≈ 128 µg/mL)
Nc1nc(-c2c[nH]c3c(F)cc(F)cc3c2=O)cs1	459 µM (≈ 128 µg/mL)	918 µM (≈ 256 µg/mL)	918 µM (≈ 256 µg/mL)	459 µM (≈ 128 µg/mL)	229 µM (≈ 64 µg/mL)	115 µM (≈ 32.1 µg/mL)	115 µM (≈ 32.1 µg/mL)	459 µM (≈ 128 µg/mL)	229 µM (≈ 64 µg/mL)	459 µM (≈ 128 µg/mL)	459 µM (≈ 128 µg/mL)	229 µM (≈ 64 µg/mL)	459 µM (≈ 128 µg/mL)	459 µM (≈ 128 µg/mL)	459 µM (≈ 128 µg/mL)	459 µM (≈ 128 µg/mL)
Cc1nc(-c2c[nH]c3ccc(F)cc3c2=O)cs1	1970 µM (≈ 513 µg/mL)	985 µM (≈ 256 µg/mL)	1970 µM (≈ 513 µg/mL)	1970 µM (≈ 513 µg/mL)	985 µM (≈ 256 µg/mL)	492 µM (≈ 128 µg/mL)	985 µM (≈ 256 µg/mL)	492 µM (≈ 128 µg/mL)	985 µM (≈ 256 µg/mL)	985 µM (≈ 256 µg/mL)	492 µM (≈ 128 µg/mL)	492 µM (≈ 128 µg/mL)	1970 µM (≈ 513 µg/mL)	985 µM (≈ 256 µg/mL)	1970 µM (≈ 513 µg/mL)	492 µM (≈ 128 µg/mL)
C/C(Cn1cc(-c2csc(C)n2)c(=O)c2cccc(F)c21)=N\NC(N)=S	658 µM (≈ 256 µg/mL)	329 µM (≈ 128 µg/mL)	1320 µM (≈ 513 µg/mL)	1320 µM (≈ 513 µg/mL)	658 µM (≈ 256 µg/mL)	1320 µM (≈ 513 µg/mL)	1320 µM (≈ 513 µg/mL)	658 µM (≈ 256 µg/mL)	329 µM (≈ 128 µg/mL)	658 µM (≈ 256 µg/mL)	329 µM (≈ 128 µg/mL)	329 µM (≈ 128 µg/mL)	329 µM (≈ 128 µg/mL)	329 µM (≈ 128 µg/mL)	1320 µM (≈ 513 µg/mL)	329 µM (≈ 128 µg/mL)
Cc1nc(-c2c[nH]c3cc(F)c(F)cc3c2=O)cs1	460 µM (≈ 128 µg/mL)	921 µM (≈ 256 µg/mL)	1840 µM (≈ 513 µg/mL)	460 µM (≈ 128 µg/mL)	460 µM (≈ 128 µg/mL)	115 µM (≈ 32 µg/mL)	460 µM (≈ 128 µg/mL)	1840 µM (≈ 513 µg/mL)	921 µM (≈ 256 µg/mL)	921 µM (≈ 256 µg/mL)	460 µM (≈ 128 µg/mL)	460 µM (≈ 128 µg/mL)	1840 µM (≈ 513 µg/mL)	921 µM (≈ 256 µg/mL)	1840 µM (≈ 513 µg/mL)	1840 µM (≈ 513 µg/mL)
CC(=O)Cn1cc(-c2csc(C)n2)c(=O)c2cc(F)c(Cl)cc21	366 µM (≈ 128 µg/mL)	366 µM (≈ 128 µg/mL)	366 µM (≈ 128 µg/mL)	731 µM (≈ 256 µg/mL)	366 µM (≈ 128 µg/mL)	91 µM (≈ 31.9 µg/mL)	366 µM (≈ 128 µg/mL)	366 µM (≈ 128 µg/mL)	731 µM (≈ 256 µg/mL)	731 µM (≈ 256 µg/mL)	731 µM (≈ 256 µg/mL)	366 µM (≈ 128 µg/mL)	731 µM (≈ 256 µg/mL)	731 µM (≈ 256 µg/mL)	731 µM (≈ 256 µg/mL)	731 µM (≈ 256 µg/mL)
C/C(Cn1cc(-c2csc(N)n2)c(=O)c2cc(F)ccc21)=N\NC(N)=S	82 µM (≈ 32 µg/mL)	82 µM (≈ 32 µg/mL)	82 µM (≈ 32 µg/mL)	164 µM (≈ 64 µg/mL)	328 µM (≈ 128 µg/mL)	328 µM (≈ 128 µg/mL)	328 µM (≈ 128 µg/mL)	656 µM (≈ 256 µg/mL)	328 µM (≈ 128 µg/mL)	656 µM (≈ 256 µg/mL)	164 µM (≈ 64 µg/mL)	656 µM (≈ 256 µg/mL)	328 µM (≈ 128 µg/mL)	656 µM (≈ 256 µg/mL)	656 µM (≈ 256 µg/mL)	328 µM (≈ 128 µg/mL)
Cc1nc(-c2c[nH]c3c(F)cc(F)cc3c2=O)cs1	460 µM (≈ 128 µg/mL)	460 µM (≈ 128 µg/mL)	921 µM (≈ 256 µg/mL)	460 µM (≈ 128 µg/mL)	460 µM (≈ 128 µg/mL)	460 µM (≈ 128 µg/mL)	1840 µM (≈ 513 µg/mL)	921 µM (≈ 256 µg/mL)	921 µM (≈ 256 µg/mL)	921 µM (≈ 256 µg/mL)	921 µM (≈ 256 µg/mL)	1840 µM (≈ 513 µg/mL)	1840 µM (≈ 513 µg/mL)	1840 µM (≈ 513 µg/mL)	460 µM (≈ 128 µg/mL)	921 µM (≈ 256 µg/mL)
OC(Cn1cncn1)(Cn1cncn1)c1ccc(F)cc1F [FLUCONAZOLE]	–	–	–	–	–	3 µM (≈ 0.919 µg/mL)	13 µM (≈ 3.98 µg/mL)	6 µM (≈ 1.84 µg/mL)	25 µM (≈ 7.66 µg/mL)	802 µM (≈ 246 µg/mL)	–	–	–	–	–	–
